# Measured values taken from patent publication US20050101575A1, “Vitamin d3 derivatives and remedies using the same” (priority 2003, published 2005).
# Tested on: HL-60 cell
# Test: Vitamin D3 antagonist effect: suppression of HL-60 cell differentiation induced by 1α,25-dihydroxyvitamin D3 (NBT reduction activity)
# Format: cell-based
# Conditions: Homo sapiens, HL-60, 96 h, simultaneous treatment with 1α,25-dihydroxyvitamin D3 (1×10^−8 M); compound 1×10^−9 to 1×10^−6 M; 4 days at 37° C.; read-out: IC50 (nM), suppression of NBT reduction activity induction in HL-60 cell
# From the text: (1) HL-60 cell line which had been purchased from a cell bank (Japanese Cancer Research Resource Bank, Cell No: JCRB0085) was used. The cell line was stored as a frozen storage stock to prevent the change of cell characteristics attributable to successive cultivations. Prior to the initiation of experiments, the cells were defrosted and successive culturing was stared. For the experiments, cells whose successive culturing was from one month to about a half year were used. The successive culturing was carried out by centrifugally collecting cells which were in the state of suspension culture, and diluting the collected cell concentrate with a fresh culture medium at a ratio of about 1/100 (1-2×10^4 cells/ml). As the culture medium, an RPMI-1640 medium containing 10% fetal bovine serum was used.
# The cells which were under successive culturing in the above process (1) were centrifugally collected, and they were dispersed in a culture medium at the cell concentration of 2×10^4 cells/ml. The dispersion was seeded into a 24-well culture schale at 1 ml/well. […] As the control, ethanol was added at 1 μl/well. After culturing at 37° C. for 4 days in the presence of 5% CO2, the cells were centrifugally collected.
# (3) As the parameter of differentiation inducing effect on HL-60 cells, the induction of nitroblue tetrazonium (henceforth, NBT) reduction activity was used. The NBT reduction activity was determined according to the following procedure. That is, centrifugally collected cells were suspended in a fresh culture medium, and subsequently NBT and 12-O-tetradecanoylphorbol-13-acetate were added in such a manner that their concentrations became 0.1% and 100 ng/ml, respectively. After the mixed suspension was incubated at 37° C. for 25 min, a cytospin specimen was prepared. After air drying, it was stained with Kernechtrot, and the ratio of the positive cells of NBT reduction activity was determined under an optical microscope. Percentage ratios of the positive cell ratio in a simultaneous treatment with 1 α,25-dihydroxyvitamin D3 (1×10^−8 M) and a compound of the present invention at various treating concentrations (1×10^−9 to 1×10^−6 M) to that in a single treatment with 1 α,25-dihydroxyvitamin D3 (1×10^−8 M) were plotted against treating concentrations of the compound of the present invention, and the treating concentration of the compound of the present invention at which the percentage ratio became 50% was determined as IC50 value (nM).
row,Compound,IC50 [nM]
1,"C=C1CC([C@@H](C)[C@H]2CC[C@H]3/C(=C/C=C4/C[C@@H](O)C[C@H](O)C4=C)CCC[C@]23C)OC1=O (stereo partly drawn) [Compound No. 11a, 20(R)-(tetrahydro-3-vinylidene-2-furanon-5-yl)-9,10-secopregna-5(Z), 7(E), 10(19)-triene-1(S),3(R)-diol]",50 to 150
2,"C=C1C[C@H](C[C@@H](C)[C@H]2CC[C@H]3/C(=C/C=C4/C[C@H](O)[C@H](C)[C@H](O)C4=C)CCC[C@]23C)OC1=O [Compound No. 22b, 2(S)-methyl-20(R)-(tetrahydro-3-vinylidene-2-furanon-5-(S)-yl)methyl-9,10-s ecopregna-5(Z),7(E), 10(19)-triene-1(S),3(S)-diol]",< 50
3,"C=C1C[C@H](C[C@@H](C)[C@H]2CC[C@H]3/C(=C/C=C4/C[C@@H](O)[C@H](C)[C@H](O)C4=C)CCC[C@]23C)OC1=O [Compound No. 22d, 2(S)-methyl-20(R)-(tetrahydro-3-vinylidene-2-furanon-5-(S)-yl)methyl-9,10-s ecopregna-5(Z),7(E),10(19)-triene-1(S),3(R)-diol]",< 50
4,C=C1CC(/C=C/[C@@H](C)[C@H]2CC[C@H]3/C(=C/C=C4/C[C@@H](O)C[C@H](O)C4=C)CCC[C@]23C)OC1=O (some centres unmarked) [Compound No. 31b],< 50
5,"C=C1CC(/C=C/[C@@H](C)[C@H]2CC[C@H]3/C(=C/C=C4/C[C@@H](O)[C@H](C)[C@H](O)C4=C)CCC[C@]23C)OC1=O (stereo partly drawn) [Compound No. 32a, 2(S)-methyl-20(R)-(2-(tetrahydro-3-vinylidene-2-furanon-5-yl)-1(E)-ethenyl)-9,10-secopregna-5(Z), 7(E), 10(19)-triene-1(S), 3(R)-diol]",< 50
